Like-named read-outs stand apart in the source and are kept apart here.
Legend:
[1] = background description of Rebaudioside A forms, % = grams soluble in 100 grams of solvent, cited from earlier work
[2] = cited from earlier work
[3] = Solubility comparison of spray dried amorphous powder samples; assay type: physicochemical; conditions: room temperature
Method: Hereinafter, unless specified otherwise, the solubility of material is determined in RO (reverse osmosis) water at room temperature. Where the solubility is expressed as “%” it to be understood as number of grams of material soluble in 100 grams of solvent.

[4] = Solubility in RO water at room temperature; assay type: physicochemical; conditions: % = grams soluble in 100 grams of solvent
Method: Hereinafter, unless specified otherwise, the solubility of material is determined in RO (reverse osmosis) water at room temperature.

SMILES | Rate of dissolution in H2O at 25° C. ([2]; grade in words) | Observation (solubility) ([3]; at 5% in water) | Observation (solubility) ([3]; at 10% in water) | Observation (solubility) ([3]; at 20% in water) | Observation (solubility) ([3]; at 30% in water) | further results
C=C1C[C@@]23CC[C@H]4[C@@](C)(CCC[C@@]4(C)C(=O)O[C@@H]4O[C@H](CO)[C@@H](O)[C@H](O)[C@H]4O)[C@@H]2CC[C@]1(O[C@@H]1O[C@H](CO)[C@@H](O)[C@H](O[C@@H]2O[C@H](CO)[C@@H](O)[C@H](O)[C@H]2O)[C@H]1O[C@@H]1O[C@H](CO)[C@@H](O)[C@H](O)[C@H]1O)C3 [Crystalline Rebaudioside A, Rebaudioside A] | – | – | – | – | – | solubility [1]: 1%-2%
C=C1C[C@@]23CC[C@H]4[C@@](C)(CCC[C@@]4(C)C(=O)O[C@@H]4O[C@H](CO)[C@@H](O)[C@H](O)[C@H]4O)[C@@H]2CC[C@]1(O[C@@H]1O[C@H](CO)[C@@H](O)[C@H](O[C@@H]2O[C@H](CO)[C@@H](O)[C@H](O)[C@H]2O)[C@H]1O[C@@H]1O[C@H](CO)[C@@H](O)[C@H](O)[C@H]1O)C3 [Form 1, Rebaudioside A] | Very low | – | – | – | – | solubility ([1]; listed as hydrate form): less than 0.2%; Rate of dissolution in H2O at 25° C. ([2]; in 60 minutes): (<0.2% in 60
C=C1C[C@@]23CC[C@H]4[C@@](C)(CCC[C@@]4(C)C(=O)O[C@@H]4O[C@H](CO)[C@@H](O)[C@H](O)[C@H]4O)[C@@H]2CC[C@]1(O[C@@H]1O[C@H](CO)[C@@H](O)[C@H](O[C@@H]2O[C@H](CO)[C@@H](O)[C@H](O)[C@H]2O)[C@H]1O[C@@H]1O[C@H](CO)[C@@H](O)[C@H](O)[C@H]1O)C3 [Form 2, Rebaudioside A] | Intermediate | – | – | – | – | solubility ([1]; listed as anhydrous form): up to 30%
C=C1C[C@@]23CC[C@H]4[C@@](C)(CCC[C@@]4(C)C(=O)O[C@@H]4O[C@H](CO)[C@@H](O)[C@H](O)[C@H]4O)[C@@H]2CC[C@]1(O[C@@H]1O[C@H](CO)[C@@H](O)[C@H](O[C@@H]2O[C@H](CO)[C@@H](O)[C@H](O)[C@H]2O)[C@H]1O[C@@H]1O[C@H](CO)[C@@H](O)[C@H](O)[C@H]1O)C3 [Form 3, Rebaudioside A] | High | – | – | – | – | Rate of dissolution in H2O at 25° C. ([2]; in 5 minutes): > 30%
C=C1C[C@@]23CC[C@H]4[C@@](C)(CCC[C@@]4(C)C(=O)O[C@@H]4O[C@H](CO)[C@@H](O)[C@H](O)[C@H]4O)[C@@H]2CC[C@]1(O[C@@H]1O[C@H](CO)[C@@H](O)[C@H](O[C@@H]2O[C@H](CO)[C@@H](O)[C@H](O)[C@H]2O)[C@H]1O[C@@H]1O[C@H](CO)[C@@H](O)[C@H](O)[C@H]1O)C3 [Form 4, Rebaudioside A] | High | – | – | – | – | Rate of dissolution in H2O at 25° C. ([2]; in 5 minutes): > 35%
C=C1C[C@@]23CC[C@H]4[C@@](C)(CCC[C@@]4(C)C(=O)O[C@@H]4O[C@H](CO)[C@@H](O)[C@H](O)[C@H]4O)[C@@H]2CC[C@]1(O[C@@H]1O[C@H](CO)[C@@H](O)[C@H](O[C@@H]2O[C@H](CO)[C@@H](O)[C@H](O)[C@H]2O)[C@H]1O[C@@H]1O[C@H](CO)[C@@H](O)[C@H](O)[C@H]1O)C3 [Sample #1, Rebaudioside A] | – | Clear solution | Slightly cloudy | Cloudy solution | Undissolved matter | –
C=C1C[C@@]23CC[C@H]4[C@@](C)(CCC[C@@]4(C)C(=O)O[C@@H]4O[C@H](CO)[C@@H](O)[C@H](O)[C@H]4O)[C@@H]2CC[C@]1(O[C@@H]1O[C@H](CO)[C@@H](O)[C@H](O[C@@H]2O[C@H](CO)[C@@H](O)[C@H](O)[C@H]2O)[C@H]1O[C@@H]1O[C@H](CO)[C@@H](O)[C@H](O)[C@H]1O)C3 [Sample #2, Rebaudioside A] | – | Clear solution | Clear solution | Slightly cloudy | Cloudy solution | –
C=C1C[C@@]23CC[C@H]4[C@@](C)(CCC[C@@]4(C)C(=O)O[C@@H]4O[C@H](CO)[C@@H](O)[C@H](O)[C@H]4O)[C@@H]2CC[C@]1(O[C@@H]1O[C@H](CO)[C@@H](O)[C@H](O[C@@H]2O[C@H](CO)[C@@H](O)[C@H](O)[C@H]2O)[C@H]1O[C@@H]1O[C@H](CO)[C@@H](O)[C@H](O)[C@H]1O)C3 [Sample #3, Rebaudioside A] | – | Clear solution | Clear solution | Clear solution | Clear solution | Observation (solubility) ([3]; at 40% in water): Slightly cloudy
C=C1C[C@@]23CC[C@H]4[C@@](C)(CCC[C@@]4(C)C(=O)O[C@@H]4O[C@H](CO)[C@@H](O)[C@H](O)[C@H]4O)[C@@H]2CC[C@]1(O[C@@H]1O[C@H](CO)[C@@H](O)[C@H](O[C@@H]2O[C@H](CO)[C@@H](O)[C@H](O)[C@H]2O)[C@H]1O[C@@H]1O[C@H](CO)[C@@H](O)[C@H](O)[C@H]1O)C3 [highly soluble amorphous form of rebaudioside A] | – | – | – | – | – | solubility in water [4]: greater than 30%
C=C1C[C@@]23CC[C@H]4[C@@](C)(CCC[C@@]4(C)C(=O)O[C@@H]4O[C@H](CO)[C@@H](O)[C@H](O)[C@H]4O)[C@@H]2CC[C@]1(O[C@@H]1O[C@H](CO)[C@@H](O)[C@H](O[C@@H]2O[C@H](CO)[C@@H](O)[C@H](O)[C@H]2O)[C@H]1O[C@@H]1O[C@H](CO)[C@@H](O)[C@H](O)[C@H]1O)C3 [rebaudioside A] | – | – | – | – | – | solubility in water [4]: 0.6%
